Test results from ChEMBL document CHEMBL1201862, “PubChem BioAssay data set” (2004).
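Step 1: Grow cells in 96-well plates. Step 2: Expose to compound for 48 hours at 5 concentrations. Step 3: Interpolate endpoints linearly; if unreached, use highest concentration. At the GI50, growth is halved.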 Calls of active or inactive are those of the source. No stated cut-off is given here; in the data, active = GI50 up to about 1.1 µM and inactive = higher. Where a SMILES comes first, the peptide text is derived from it. [ ]: non-standard residue; d: D form. The star is where a group is joined. ξ: configuration not given here. Propanoyl(3-(4-MeO-Ph)) = COc1ccc(CCC(=O)*)cc1; Thr(3ξ) = CC(O)[C@H](N)C(=O)O; dNMeL = CN[C@H](CC(C)C)C(=O)O; OBn = c1ccc(CO*)cc1; ξLac = CC(O)C(=O)O

Tests used:
Test in all cases: NCI tumour cell line growth inhibition, 48 h
MDA-MB-231 = system: MDA-MB-231
RPMI-8226 = system: RPMI-8226
SR = system: SR
NCI-H226 = system: NCI-H226
UO-31 = system: UO-31
K562 = system: K562
M14 = system: M14
T47D = system: T47D
HOP-62 = system: HOP-62
HCT-15 = system: HCT-15
IGROV-1 = system: IGROV-1
NCI-H23 = system: NCI-H23
SNB-75 = system: SNB-75
786-0 = system: 786-0
MCF7 = system: MCF7
A498 = system: A498
SK-OV-3 = system: SK-OV-3
NCI-H522 = system: NCI-H522
DU-145 = system: DU-145
HOP-92 = system: HOP-92
OVCAR-4 = system: OVCAR-4
NCI/ADR-RES = system: NCI/ADR-RES
RXF 393 = system: RXF 393
Malme-3M = system: Malme-3M
Hs-578T = system: Hs-578T
EKVX = system: EKVX
HL-60 = system: HL-60
OVCAR-5 = system: OVCAR-5
OVCAR-8 = system: OVCAR-8
BT-549 = system: BT-549
UACC-257 = system: UACC-257
ACHN = system: ACHN
U-251 = system: U-251
UACC-62 = system: UACC-62
HCT-116 = system: HCT-116
A549 = system: A549
MDA-MB-435 = system: MDA-MB-435
OVCAR-3 = system: OVCAR-3
SNB-19 = system: SNB-19
COLO 205 = system: COLO 205
HT-29 = system: HT-29
NCI-H460 = system: NCI-H460
CAKI-1 = system: CAKI-1
HCC 2998 = system: HCC 2998
SF-268 = system: SF-268
LOX IMVI = system: LOX IMVI
SK-MEL-2 = system: SK-MEL-2
SW-620 = system: SW-620
MDA-N = system: MDA-N
TK-10 = system: TK-10
MOLT-4 = system: MOLT-4
CCRF-CEM = system: CCRF-CEM
SF-295 = system: SF-295
SN12C = system: SN12C
SF-539 = system: SF-539
KM12 = system: KM12
SK-MEL-5 = system: SK-MEL-5
SK-MEL-28 = system: SK-MEL-28
PC-3 = system: PC-3

## O=C(/C=C/c1cccc2ccccc12)c1ccccc1
MDA-MB-231
  GI50: 8.93 µM (inactive)
RPMI-8226
  GI50: 2.31 µM (inactive)
SR
  GI50: 2.9 µM (inactive)
NCI-H226
  GI50: 12.7 µM (inactive)
UO-31
  GI50: 11.6 µM (inactive)
K562
  GI50: 2.74 µM (inactive)
M14
  GI50: 14.6 µM (inactive)
T47D
  GI50: 11.7 µM (inactive)
HOP-62
  GI50: 19.8 µM (inactive)
HCT-15
  GI50: 6.85 µM
IGROV-1
  GI50: 7.45 µM (inactive)
NCI-H23
  GI50: 13.7 µM (inactive)
SNB-75
  GI50: 15.9 µM (inactive)
786-0
  GI50: 8.83 µM (inactive)
MCF7
  GI50: 1.29 µM (inactive)
A498
  GI50: 17.4 µM (inactive)
SK-OV-3
  GI50: 16.3 µM (inactive)
NCI-H522
  GI50: 10.1 µM (inactive)
DU-145
  GI50: 14.8 µM (inactive)
HOP-92
  GI50: 18.3 µM (inactive)
OVCAR-4
  GI50: 12.9 µM (inactive)
NCI/ADR-RES
  GI50: 14 µM (inactive)
RXF 393
  GI50: 10.9 µM (inactive)
Malme-3M
  GI50: 12.9 µM (inactive)
Hs-578T
  GI50: 26.3 µM (inactive)
EKVX
  GI50: 13.4 µM (inactive)
HL-60
  GI50: 2.88 µM (inactive)
OVCAR-5
  GI50: 13.8 µM (inactive)
OVCAR-8
  GI50: 8.45 µM (inactive)
BT-549
  GI50: 13.2 µM (inactive)
UACC-257
  GI50: 15 µM (inactive)
ACHN
  GI50: 13.9 µM (inactive)
U-251
  GI50: 8.63 µM (inactive)
UACC-62
  GI50: 11.7 µM (inactive)
HCT-116
  GI50: 10.3 µM (inactive)
A549
  GI50: 15.2 µM (inactive)
MDA-MB-435
  GI50: 8.81 µM (inactive)
OVCAR-3
  GI50: 9.16 µM (inactive)
SNB-19
  GI50: 14.5 µM (inactive)
COLO 205
  GI50: 20.7 µM (inactive)
HT-29
  GI50: 4.57 µM (inactive)
NCI-H460
  GI50: 16.1 µM (inactive)
CAKI-1
  GI50: 12.2 µM (inactive)
HCC 2998
  GI50: 15.7 µM (inactive)
SF-268
  GI50: 16.5 µM (inactive)
LOX IMVI
  GI50: 1.99 µM (inactive)
SK-MEL-2
  GI50: 14 µM (inactive)
SW-620
  GI50: 4 µM (inactive)
MDA-N
  GI50: 5.71 µM (inactive)
TK-10
  GI50: 6.35 µM (inactive)
MOLT-4
  GI50: 3.94 µM (inactive)
CCRF-CEM
  GI50: 3.28 µM (inactive)
SF-295
  GI50: 16.5 µM (inactive)
SN12C
  GI50: 7.89 µM (inactive)
SF-539
  GI50: 3.57 µM (inactive)
KM12
  GI50: 4.71 µM (inactive)
SK-MEL-5
  GI50: 12.5 µM (inactive)
SK-MEL-28
  GI50: 17.7 µM (inactive)
PC-3
  GI50: 7.05 µM (inactive)

## COc1ccc(CCC(=O)OC(C)[C@H](NC(=O)[C@@H](CC(C)C)N(C)C(=O)[C@@H]2CCCN2C(=O)C(C)O)C(=O)OCc2ccccc2)cc1 (stereo partly drawn) (H-[ξLac]P[dNMeL][Thr(3ξ)](Propanoyl(3-(4-MeO-Ph)))-OBn)
MDA-MB-231
  GI50: 19.3 µM (inactive)
RPMI-8226
  GI50: 28.7 µM (inactive)
SR
  GI50: 34.4 µM (inactive)
NCI-H226
  GI50: 30.4 µM (inactive)
UO-31
  GI50: 40.5 µM (inactive)
K562
  GI50: 27.8 µM (inactive)
M14
  GI50: 16.9 µM (inactive)
T47D
  GI50: 33.6 µM (inactive)
HOP-62
  GI50: 99.8 µM (inactive)
HCT-15
  GI50: 32.3 µM
IGROV-1
  GI50: 30.5 µM (inactive)
NCI-H23
  GI50: 41.4 µM (inactive)
SNB-75
  GI50: 19.9 µM (inactive)
786-0
  GI50: 35.2 µM (inactive)
MCF7
  GI50: 38.1 µM (inactive)
A498
  GI50: 28.7 µM (inactive)
SK-OV-3
  GI50: 84.1 µM (inactive)
NCI-H522
  GI50: 24.3 µM (inactive)
DU-145
  GI50: 62.5 µM (inactive)
HOP-92
  GI50: 19.1 µM (inactive)
OVCAR-4
  GI50: 73.8 µM (inactive)
NCI/ADR-RES
  GI50: 27.5 µM (inactive)
RXF 393
  GI50: 22.1 µM (inactive)
Malme-3M
  GI50: 20.8 µM (inactive)
Hs-578T
  GI50: 12.9 µM (inactive)
EKVX
  GI50: 80.7 µM (inactive)
HL-60
  GI50: 28.2 µM (inactive)
OVCAR-5
  GI50: > 100 µM (inactive)
OVCAR-8
  GI50: 96.2 µM (inactive)
BT-549
  GI50: 43.6 µM (inactive)
UACC-257
  GI50: 18.4 µM (inactive)
ACHN
  GI50: 41.6 µM (inactive)
U-251
  GI50: 26.5 µM (inactive)
UACC-62
  GI50: 19.2 µM (inactive)
HCT-116
  GI50: 43.7 µM (inactive)
A549
  GI50: 52.4 µM (inactive)
MDA-MB-435
  GI50: 21.8 µM (inactive)
OVCAR-3
  GI50: 29.8 µM (inactive)
SNB-19
  GI50: 66.2 µM (inactive)
COLO 205
  GI50: 19.5 µM (inactive)
HT-29
  GI50: 36.5 µM (inactive)
NCI-H460
  GI50: 64.4 µM (inactive)
CAKI-1
  GI50: > 100 µM (inactive)
HCC 2998
  GI50: 40.4 µM (inactive)
SF-268
  GI50: 31.5 µM (inactive)
LOX IMVI
  GI50: 17.9 µM (inactive)
SK-MEL-2
  GI50: 16.7 µM (inactive)
SW-620
  GI50: 32.3 µM (inactive)
MDA-N
  GI50: 32.4 µM (inactive)
TK-10
  GI50: 18.9 µM (inactive)
MOLT-4
  GI50: 24.3 µM (inactive)
CCRF-CEM
  GI50: 26.9 µM (inactive)
SF-295
  GI50: 35.2 µM (inactive)
SN12C
  GI50: 34.9 µM (inactive)
SF-539
  GI50: 24.6 µM (inactive)
KM12
  GI50: 27.9 µM (inactive)
SK-MEL-5
  GI50: 15.5 µM (inactive)
SK-MEL-28
  GI50: 17.8 µM (inactive)
PC-3
  GI50: 30.5 µM (inactive)
